Measured values published in patent US20260184707A1, “PHARMACEUTICAL COMPOUNDS FOR THE TREATMENT OF COMPLEMENT MEDIATED DISORDERS” (ALEXION PHARMACEUTICALS, INC., priority 2022, published 2026).

Target: T1, Human complement C1s enzyme (Homo sapiens, UniProt P09871)
T1 construct: purified from human serum, Complement Technology, Inc; purchased Complement Technology, Inc; host or cells: human serum (plasma-derived native protein)
T1 sequence (P09871 438-688 limits assumed): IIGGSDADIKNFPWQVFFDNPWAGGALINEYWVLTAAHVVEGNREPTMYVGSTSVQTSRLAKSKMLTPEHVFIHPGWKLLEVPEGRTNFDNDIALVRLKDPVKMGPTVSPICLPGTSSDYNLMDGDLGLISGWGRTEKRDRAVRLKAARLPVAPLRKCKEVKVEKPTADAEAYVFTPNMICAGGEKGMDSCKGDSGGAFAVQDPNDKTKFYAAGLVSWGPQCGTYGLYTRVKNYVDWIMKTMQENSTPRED
T1 sequence (P09871 16-437 partner limits assumed): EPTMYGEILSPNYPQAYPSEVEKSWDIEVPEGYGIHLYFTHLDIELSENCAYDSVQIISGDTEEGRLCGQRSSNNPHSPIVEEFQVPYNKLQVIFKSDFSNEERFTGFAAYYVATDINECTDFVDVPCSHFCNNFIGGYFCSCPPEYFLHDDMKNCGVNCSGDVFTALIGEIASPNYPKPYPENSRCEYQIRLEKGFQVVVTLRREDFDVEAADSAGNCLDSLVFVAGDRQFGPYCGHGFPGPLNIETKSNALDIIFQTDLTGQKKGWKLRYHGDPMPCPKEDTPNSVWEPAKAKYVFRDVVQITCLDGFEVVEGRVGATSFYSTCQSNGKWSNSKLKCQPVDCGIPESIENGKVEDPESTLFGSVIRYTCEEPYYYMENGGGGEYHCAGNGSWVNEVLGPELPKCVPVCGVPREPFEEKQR
Assay: Human C1s enzyme assay
Assay type: biochemical
Conditions: human complement C1s enzyme 1.16 nM, substrate Z-L-Lys-SBzl, A405; read-out: IC50 (Stars)
How it was run: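 Thioesterase activity followed colorimetrically (DTNB, A405, 30-s reads) using 100 μM Z-L-Lys-SBzl substrate. Enzyme, human serum-derived C1s at 1.16 nM final, was incubated with test compound for 5 min, room temperature, pH 7.5 Tris buffer with 1 M NaCl. Rate-versus-concentration data fitted by nonlinear regression for IC50.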

Row | Compound | IC50
1 | C[C@@H](Nc1ncc(-c2ccccc2F)n(CC(=O)NCc2cc3cnccc3[nH]2)c1=O)c1ccc(-c2ccccc2F)cc1 [Compound 418, (R)—N-((1H-Pyrrolo[3,2-c]pyridine-2-yl)methyl)-2-(3-((1-(2′-fluoro-[1,1′-biphenyl]-4-yl)ethyl)amino)-6-(2-fluorophenyl)-2-oxopyrazin-1(2H)-yl)acetamide] | < 100 nM
2 | C[C@@H](Nc1ncc(C2CCCC2)n(CC(=O)NCc2cc3cnccc3[nH]2)c1=O)c1ccc2oc3ccccc3c2c1 [Compound 420, (R)-N-((1H-pyrrolo[3,2-c]pyridin-2-yl)methyl)-2-(6-cyclopentyl-3-((1-(dibenzo [b,d]furan-2-yl)ethyl)amino)-2-oxopyrazin-1(2H)-yl)acet-amide] | < 100 nM
3 | C[C@@H](Nc1cnc(N2CCOCC2)n(CC(=O)NCc2cc3cnccc3[nH]2)c1=O)c1ccc(-c2ccccc2F)cc1 [Compound 421, (R)-N-((1H-pyrrolo[3,2-c]pyridin-2-yl)methyl)-2-(5-((1-(2′-fluoro-[1,1′-biphenyl]-4-yl)-ethyl)amino)-2-morpholino-6-oxopyrimidin-1(6H)-yl)acet-amide] | < 100 nM
4 | C[C@@H](Nc1cnc(N2CCCC2)n(CC(=O)NCc2cc3cnccc3[nH]2)c1=O)c1ccc(-c2ccccc2F)cc1 [Compound 422, (R)-N-((1H-pyrrolo[3,2-c]pyridin-2-yl)methyl)-2-(5-((1-(2′-fluoro-[1,1′-biphenyl]-4-yl)ethyl)amino)-6-oxo-2-(pyr-rolidin-1-yl)pyrimidin-1(6H)-yl)acetamide] | < 100 nM
5 | C[C@@H](Nc1ncc(N2CCCCC2)n(CC(=O)NCc2cc3cnccc3[nH]2)c1=O)c1ccc(-c2ccccc2F)cc1 [Compound 423, (R)-N-((1H-pyrrolo[3,2-c]pyridin-2-yl)methyl)-2-(3-((1-(2′-fluoro-[1,1′-biphenyl]-4-yl)ethyl)amino)-2-oxo-6-(piperidin-1-yl)pyrazin-1(2H)-yl)acetamide] | < 100 nM
6 | C[C@@H](Nc1ncc(N2CCCC(O)C2)n(CC(=O)NCc2cc3cnccc3[nH]2)c1=O)c1ccc2oc3ccccc3c2c1 (stereo partly drawn) [Compound 424, N-((1H-pyrrolo[3,2-c]pyridin-2-yl)methyl)-2-(3-(((R)-1-(dibenzo[b,d]furan-2-yl)ethyl)-amino)-6-(3-hydroxypiperidin-1-yl)-2-oxopyrazin-1(2H)-yl)-acetamide] | < 100 nM
7 | C[C@@H](Nc1cnc(-c2ccccc2)n(CC(=O)NCc2cc(Cl)ccc2-n2cnnn2)c1=O)c1ccc2oc3ccccc3c2c1 [Compound 425, (R)-N-(5-chloro-2-(1H-tetra-zol-1-yl)benzyl)-2-(5-((1-(dibenzo[b,d]furan-2-yl)ethyl)-amino)-6-oxo-2-phenylpyrimi-din-1(6H)-yl)acetamide] | > 1000 nM
8 | C[C@@H](Nc1ncc(C2=CCOCC2)n(CC(=O)NCc2cc3cnccc3[nH]2)c1=O)c1ccc2oc3ccccc3c2c1 [Compound 426, (R)—N-((1H-Pyrrolo[3,2-c]pyridine-2-yl)methyl)-2-(3-((1-(dibenzo[b,d]furan-2-yl)ethyl)amino)-6-(3,6-dihydro-2H-pyran-4-yl)-2-oxopyrazin-1(2H)-yl)acetamide] | < 100 nM
9 | C[C@@H](Nc1ncc(C2=CCCCC2)n(CC(=O)NCc2cc3cnccc3[nH]2)c1=O)c1ccc2oc3ccccc3c2c1 [Compound 427, (R)-N-((1H-pyrrolo[3,2-c]pyridin-2-yl)methyl)-2-(6-(cyclohex-1-en-1-yl)-3-((1-(dibenzo[b,d]furan-2-yl)ethyl)-amino)-2-oxopyrazin-1(2H)-yl)acetamide] | < 100 nM
10 | C[C@@H](Nc1ncc(N2CCN(C)CC2)n(CC(=O)NCc2cc3cnccc3[nH]2)c1=O)c1ccc2oc3ccccc3c2c1 [Compound 428, (R)-N-((1H-pyrrolo[3,2-c]pyridin-2-yl)methyl)-2-(3-((1-(dibenzo[b,d]furan-2-yl)ethyl)-amino)-6-(4-methylpiperazin-1-yl)-2-oxopyrazin-1(2H)-yl)-acetamide] | < 100 nM
11 | C[C@@H](Nc1ncc(-c2cscn2)n(CC(=O)NCc2cc3cnccc3[nH]2)c1=O)c1ccc2oc3ccccc3c2c1 [Compound 429, (R)-N-((1H-pyrrolo[3,2-c]pyridin-2-yl)methyl)-2-(3-((1-(dibenzo[b,d]furan-2-yl)ethyl)-amino)-2-oxo-6-(thiazol-4-yl)-pyrazin-1(2H)-yl)acetamide] | < 100 nM
12 | C[C@@H](Nc1ncc(-c2ccccn2)n(CC(=O)NCc2cc3cnccc3[nH]2)c1=O)c1ccc2oc3ccccc3c2c1 [Compound 430, (R)-N-((1H-pyrrolo[3,2-c]pyridin-2-yl)methyl)-2-(3-((1-(dibenzo[b,d]furan-2-yl)ethyl)-amino)-2-oxo-6-(pyridin-2-yl)-pyrazin-1(2H)-yl)acetamide] | < 100 nM
13 | C[C@@H](Nc1ncc(-c2nccs2)n(CC(=O)NCc2cc3cnccc3[nH]2)c1=O)c1ccc2oc3ccccc3c2c1 [Compound 431, (R)-N-((1H-pyrrolo[3,2-c]pyridin-2-yl)methyl)-2-(3-((1-(dibenzo[b,d]furan-2-yl)ethyl)-amino)-2-oxo-6-(thiazol-2-yl)-pyrazin-1(2H)-yl)acetamide] | < 100 nM
14 | C[C@@H](Nc1ncc(-c2cscn2)n(CC(=O)NCc2cc3cnccc3[nH]2)c1=O)c1ccc(-c2ccccc2F)cc1 [Compound 432, (R)-N-((1H-pyrrolo[3,2-c]pyridin-2-yl)methyl)-2-(3-((1-(2′-fluoro-[1,1′-biphenyl]-4-yl)ethyl)amino)-2-oxo-6-(thiazol-4-yl)pyrazin-1(2H)-yl)acetamide] | < 100 nM
15 | O=C(Cn1c(-c2ccccc2F)ncc(N[C@H](CO)c2ccc3oc4ccccc4c3c2)c1=O)NCc1cc2cnccc2[nH]1 [Compound 433, (S)—N-((1H-Pyrrolo[3,2-c]pyridine-2-yl)methyl)-2-(5-((1-(dibenzo[b,d]furan-2-yl)-2-hydroxyethyl)amino)-2-(2-fluorophenyl)-6-oxopyrimidin-1(6H)-yl)acetamide] | < 100 nM
16 | Cc1cccc(-c2ncc(N[C@H](C)c3ccc4oc5ccccc5c4c3)c(=O)n2CC(=O)NCc2cc3cnccc3[nH]2)c1F [Compound 434, (R)-N-((1H-pyrrolo[3,2-c]pyridin-2-yl)methyl)-2-(5-((1-(dibenzo[b,d]furan-2-yl)ethyl)amino)-2-(2-fluoro-3-methylphenyl)-6-oxopyr-imidin-1(6H)-yl)acetamide] | < 100 nM
17 | Cc1cccc(-c2ncc(NCCCc3ccccc3)c(=O)n2CC(=O)NCc2cc3cnccc3[nH]2)c1F [Compound 435, N-((1H-pyrrolo[3,2-c]pyridin-2-yl)methyl)-2-(2-(2-fluoro-3-methylphenyl)-6-oxo-5-((3-phenylpropyl)amino)pyrimi-din-1(6H)-yl)acetamide] | < 100 nM
18 | Cc1ccc(-c2ncc(N[C@H](C)c3ccc4oc5ccccc5c4c3)c(=O)n2CC(=O)NCc2cc3cnccc3[nH]2)c(F)c1 [Compound 436, (R)-N-((1H-pyrrolo[3,2-c]pyridin-2-yl)methyl)-2-(5-((1-(dibenzo[b,d]furan-2-yl)ethyl)-amino)-2-(2-fluoro-4-methyl-phenyl)-6-oxopyrimidin-1(6H)-yl)acetamide] | < 100 nM
19 | Cc1ccc(-c2ncc(NCCCc3ccccc3)c(=O)n2CC(=O)NCc2cc3cnccc3[nH]2)c(F)c1 [Compound 437, N-((1H-pyrrolo[3,2-c]pyridin-2-yl)methyl)-2-(2-(2-fluoro-4-methylphenyl)-6-oxo-5-((3-phenylpropyl)amino)pyrimi-din-1(6H)-yl)acetamide] | < 100 nM
